From PubChem BioAssay AID248 (DTP/NCI, 2004)
Inconclusive results and toxic doses are left out. Cut-off read from the data, not from the text of the source: active = T/C of 150% or more; inactive = T/C below 125%.

Tested on: L1210 leukemia ip in BDF1 mice, survival T/C
Experiment: NCI In Vivo Anticancer Drug Screen. Data for tumor model L1210 Leukemia (intraperitoneal) in B6D2F1 (BDF1) mice
Conditions: endpoint: mean survival time, higher = longer survival
Summary of the method: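 Each compound was tested against a transplantable tumor grown in mice. The endpoint was survival, with treated animals benchmarked against vehicle controls as a simple ratio.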

[1] = dose: 100.0 mg/kg/injection, schedule: Q01DX009 (ip), vehicle: Klucel (hydroxypropylcellulose) (HPC)
[2] = dose: 200.0 mg/kg/injection, schedule: Q01DX009 (ip), vehicle: Klucel (hydroxypropylcellulose) (HPC)
[3] = dose: 400.0 mg/kg/injection, schedule: Q01DX009 (ip), vehicle: Klucel (hydroxypropylcellulose) (HPC)

Measured: T/C

O=NN(CCCl)C(=O)NC1CS(=O)(=O)CS(=O)(=O)C1
active: dose: 6.25 mg/kg/injection, schedule: Q01DX001 (ip), vehicle: other 193 % of control | dose: 12.5 mg/kg/injection, schedule: Q01DX001 (ip), vehicle: other 296 % of control | dose: 25.0 mg/kg/injection, schedule: Q01DX001 (ip), vehicle: other 322 % of control | dose: 50.0 mg/kg/injection, schedule: Q01DX001 (ip), vehicle: other 252 % of control
inactive: dose: 75.0 mg/kg/injection, schedule: Q01DX001 (ip), vehicle: other 117 % of control

C=CCCCCCCCCC(=O)Cl
inactive: dose: 100.0 mg/kg/injection, schedule: Q01DX009 (ip), vehicle: saline with Tween-80 89 % of control | dose: 100.0 mg/kg/injection, schedule: Q04DX003 (ip), vehicle: saline with Tween-80 97 % of control | dose: 200.0 mg/kg/injection, schedule: Q01DX009 (ip), vehicle: saline with Tween-80 88 % of control | dose: 200.0 mg/kg/injection, schedule: Q04DX003 (ip), vehicle: saline with Tween-80 101 % of control | dose: 400.0 mg/kg/injection, schedule: Q01DX009 (ip), vehicle: saline with Tween-80 98 % of control | dose: 400.0 mg/kg/injection, schedule: Q04DX003 (ip), vehicle: saline with Tween-80 95 % of control

OC(CNc1ccccc1)CN1CCCC1 (configuration not stated)
inactive: dose: 100.0 mg/kg/injection, schedule: Q04DX003 (ip), vehicle: saline 89 % of control | dose: 200.0 mg/kg/injection, schedule: Q04DX003 (ip), vehicle: saline 94 % of control

CCCCOP(=O)(Cc1ccc(Cl)c(Cl)c1)OCCCC
inactive: dose: 100.0 mg/kg/injection, schedule: Q04DX002 (sc), vehicle: olive oil, sesame oil, peanut oil 98 % of control | dose: 200.0 mg/kg/injection, schedule: Q04DX002 (sc), vehicle: olive oil, sesame oil, peanut oil 102 % of control | dose: 400.0 mg/kg/injection, schedule: Q04DX002 (sc), vehicle: olive oil, sesame oil, peanut oil 98 % of control

CCc1ccc(N=Nc2ccc(N)cc2)cc1
inactive: dose: 100.0 mg/kg/injection, schedule: Q01DX001 (ip), vehicle: carboxymethylcellulose (CMC) 101 % of control | dose: 200.0 mg/kg/injection, schedule: Q01DX001 (ip), vehicle: carboxymethylcellulose (CMC) 89 % of control | dose: 400.0 mg/kg/injection, schedule: Q01DX001 (ip), vehicle: carboxymethylcellulose (CMC) 93 % of control

CC1(NC(=O)N(CCCl)N=O)CCCC1
inactive: dose: 16.0 mg/kg/injection, schedule: Q01DX001 (ip), vehicle: carboxymethylcellulose (CMC) 95 % of control | dose: 31.0 mg/kg/injection, schedule: Q01DX001 (ip), vehicle: carboxymethylcellulose (CMC) 113 % of control
active: dose: 62.0 mg/kg/injection, schedule: Q01DX001 (ip), vehicle: carboxymethylcellulose (CMC) 157 % of control | dose: 125.0 mg/kg/injection, schedule: Q01DX001 (ip), vehicle: carboxymethylcellulose (CMC) 282 % of control | dose: 250.0 mg/kg/injection, schedule: Q01DX001 (ip), vehicle: carboxymethylcellulose (CMC) 329 % of control

O=C(CCCCCCCCC(=O)Nc1ccccc1F)Nc1ccccc1F
inactive: [1] 101 % of control | [2] 102 % of control | [3] 101 % of control

O=C(O)c1c(Br)c(Br)c(Br)c(Br)c1C(=O)Nc1ccc(Cl)c(Cl)c1
inactive: [1] 95 % of control | [2] 98 % of control | [3] 120 % of control

Cc1cc(=O)[nH]c2oc(-c3ccccc3)cc(=O)c12
inactive: dose: 100.0 mg/kg/injection, schedule: Q01DX001 (ip), vehicle: saline 101 % of control | dose: 200.0 mg/kg/injection, schedule: Q01DX001 (ip), vehicle: saline 103 % of control | dose: 400.0 mg/kg/injection, schedule: Q01DX001 (ip), vehicle: saline 100 % of control

CC1=Nc2ccccc2SC(C)(C)C1
inactive: dose: 50.0 mg/kg/injection, schedule: Q01DX001 (ip), vehicle: Klucel (hydroxypropylcellulose) (HPC) 98 % of control | dose: 100.0 mg/kg/injection, schedule: Q01DX001 (ip), vehicle: Klucel (hydroxypropylcellulose) (HPC) 91 % of control | dose: 200.0 mg/kg/injection, schedule: Q01DX001 (ip), vehicle: Klucel (hydroxypropylcellulose) (HPC) 109 % of control | dose: 400.0 mg/kg/injection, schedule: Q01DX001 (ip), vehicle: Klucel (hydroxypropylcellulose) (HPC) 98 % of control
